Values joined by “and” are separate entries in the source; they are usually repeats but may differ in a detail not shown here. Identical values can stand only once.
Biological target: Nicotinic acetylcholine receptor (Rattus leucopus, UniProt Q62594)
Sequence (Q62594 whole entry): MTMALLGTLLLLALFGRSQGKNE

Row | SMILES | Ki
1 | C=C(C=O)C[C@H]1C[C@H](O)[C@]2(C)O[C@@H]3C[C@@H]4O[C@@H]5C[C@]6(C)O[C@]7(C)CC[C@@H]8O[C@@H]9C[C@]%10(C)O[C@@H]%11C(C)=CC(=O)O[C@H]%11C[C@H]%10O[C@H]9C[C@@H](C)[C@H]8O[C@H]7C[C@H]6O[C@@]5(C)C/C=C\[C@H]4O[C@H]3C[C@H]2O1 | > 10000 nM and 1000 nM
2 | CNC(=O)OCC[N+](C)(C)C [CAS_14721-69-8] | 5.2 nM
3 | C[N+](C)(C)CCCCCC[N+](C)(C)C [Hexamethoniumdibromide] | > 10000 nM
4 | CN1[C@@H](C[C@@H](O)c2ccccc2)CCC[C@H]1CC(=O)c1ccccc1 [Lobeline] | 15.5 nM
5 | O=C1N(Cc2ccccc2)C2C[S+]3CCCC3C2N1Cc1ccccc1 (stereo unspecified) [NSC_441310] | > 10000 nM
6 | COc1cc2c3cc1Oc1cc(ccc1O)C[C@@H]1c4c(cc(OC)c(O)c4Oc4ccc(cc4)C[C@@H]3N(C)CC2)CC[N+]1(C)C [Tubocurarine,d] | 1000 nM and 282 nM

From BindingDB's records for PubMed 8035312 (University of California, 1994)
